# Results taken from US9833497B2, “Human originated EGF domain proteins and use of the same” (CHENGDU SOURCEBIO LIMITED-LIABILITY COMPANY, priority 2013, dated 2017).
# Assays:
# Assay type in all cases: cell-based
# E. coli DH5α = assay: Antibacterial activity: MIC and growth curve against E. coli DH5α in 96-well plate; settings: minimal inhibitory concentration against E. coli DH5α; 96-well plate, 5×10^5 CFU/mL, 37° C., judged after 8 h
# Method in brief: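 Log-phase bacteria (OD600 ~0.5) resuspended in LB at 5×10^5 CFU/mL, exposed to recombinant protein at 50, 25, 12.5 μg/mL final in triplicate, 37 °C shaking at 175 rpm. OD600 read every 30 min; MIC is lowest concentration showing no growth.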
# Citrobacter diversus = assay: MIC against Gram-negative bacteria: Citrobacter diversus; settings: for MIC against C. diversus / MIC (μg/mL) C. diversus: 5×10^5 CFU/mL
# Method in brief: (§1)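 The recombinant human-originated EGF domain proteins were serially diluted two-fold against bacteria at 5×10^5 CFU/mL in LB medium. After shaken incubation at 37° C, the lowest concentration with no bacterial growth was recorded as the MIC.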
# Proteus mirabilis = assay: MIC against Gram-negative bacteria: Proteus mirabilis; settings: for MIC against P. mirabilis / MIC (μg/mL) P. mirabilis: 5×10^5 CFU/mL
# Method in brief: as §1
# Pseudomonas aeruginosa = assay: MIC against Gram-negative bacteria: Pseudomonas aeruginosa; settings: for MIC against P. aeruginosa / MIC (μg/mL) P. aeruginosa: 5×10^5 CFU/mL
# Method in brief: as §1
# E. coli BL21 = assay: MIC against Gram-negative bacteria: E. coli BL21; settings: for MIC against E. coli BL21 / MIC (μg/mL) E. coli BL21: 5×10^5 CFU/mL
# Method in brief: as §1
# Enterobacter cloacae = assay: MIC against Gram-negative bacteria: Enterobacter cloacae; settings: for MIC against E. cloacae / MIC (μg/mL) E. cloacae: 5×10^5 CFU/mL
# Method in brief: as §1
# Moraxella catarrhalis = assay: MIC against Gram-negative bacteria: Moraxella catarrhalis; settings: for MIC against M. catarrhalis / MIC (μg/mL) M. catarrhalis: 5×10^5 CFU/mL
# Method in brief: as §1
# Serratia marcescens = assay: MIC against Gram-negative bacteria: Serratia marcescens; settings: for MIC against S. marcescens / MIC (μg/mL) S. marcescens: 5×10^5 CFU/mL
# Method in brief: as §1
# Aeromonas hydrophila = assay: MIC against Gram-negative bacteria: Aeromonas hydrophila; settings: for MIC against A. hydrophila / MIC (μg/mL) A. hydrophila: 5×10^5 CFU/mL
# Method in brief: as §1
# Proteus vulgaris = assay: MIC against Gram-negative bacteria: Proteus vulgaris; settings: for MIC against P. vulgaris / MIC (μg/mL) P. vulgaris: 5×10^5 CFU/mL
# Method in brief: as §1
# Klebsiella pneumonia = assay: MIC against Gram-negative bacteria: Klebsiella pneumonia; settings: for MIC against K. pneumonia / MIC (μg/mL) K. pneumonia: 5×10^5 CFU/mL
# Method in brief: as §1
# [1] = Citrobacter diversus, 10 h cultivation at 37° C.
# [2] = Proteus mirabilis, 10 h cultivation at 37° C.
# [3] = Pseudomonas aeruginosa, 10 h cultivation at 37° C.
# [4] = E. coli BL21, 10 h cultivation at 37° C.
# [5] = Enterobacter cloacae, 10 h cultivation at 37° C.
# [6] = Moraxella catarrhalis, 10 h cultivation at 37° C.
# [7] = Serratia marcescens, 10 h cultivation at 37° C.
# [8] = Aeromonas hydrophila, 10 h cultivation at 37° C.
# [9] = Proteus vulgaris, 10 h cultivation at 37° C.
# [10] = Klebsiella pneumonia, 10 h cultivation at 37° C.
# [11] = C. diversus, 10 h cultivation at 37° C.
# [12] = P. mirabilis, 10 h cultivation at 37° C.
# [13] = P. aeruginosa, 10 h cultivation at 37° C.
# [14] = E. cloacae, 10 h cultivation at 37° C.
# [15] = M. catarrhalis, 10 h cultivation at 37° C.
# [16] = S. marcescens, 10 h cultivation at 37° C.
# [17] = A. hydrophila, 10 h cultivation at 37° C.
# [18] = P. vulgaris, 10 h cultivation at 37° C.
# [19] = K. pneumonia, 10 h cultivation at 37° C.
# [20] = Citrobacter diversus, 96-well plate, 37° C., 10 h
# [21] = Proteus mirabilis, 96-well plate, 37° C., 10 h
# [22] = Pseudomonas aeruginosa, 96-well plate, 37° C., 10 h
# [23] = E. coli BL21, 96-well plate, 37° C., 10 h
# [24] = Enterobacter cloacae, 96-well plate, 37° C., 10 h
# [25] = Moraxella catarrhalis, 96-well plate, 37° C., 10 h
# [26] = Serratia marcescens, 96-well plate, 37° C., 10 h
# [27] = Aeromonas hydrophila, 96-well plate, 37° C., 10 h
# [28] = Proteus vulgaris, 96-well plate, 37° C., 10 h
# [29] = Klebsiella pneumonia, 96-well plate, 37° C., 10 h
substance,measurement,setting,value
PRT1466 (CSCHTTGAVNHICNSLTGQCVCQDASIAGQRCDQCKDHYFGFDPQTGRCQP; listed as Homo sapiens),MIC,E. coli DH5α,50 µg/mL
same,MIC against C. diversus,Citrobacter diversus; [1],12.5 µg/mL
same,MIC against P. mirabilis,Proteus mirabilis; [2],25 µg/mL
same,MIC against P. aeruginosa,Pseudomonas aeruginosa; [3],12.5 µg/mL
same,MIC against E. coli BL21,E. coli BL21; [4],25 µg/mL
same,MIC against E. cloacae,Enterobacter cloacae; [5],12.5 µg/mL
same,MIC against M. catarrhalis,Moraxella catarrhalis; [6],50 µg/mL
same,MIC against S. marcescens,Serratia marcescens; [7],25 µg/mL
same,MIC against A. hydrophila,Aeromonas hydrophila; [8],50 µg/mL
same,MIC against P. vulgaris,Proteus vulgaris; [9],12.5 µg/mL
same,MIC against K. pneumonia,Klebsiella pneumonia; [10],50 µg/mL
PRT1402 (DGCPDLCNGNGRCTLGQNSWQCVCQTGWRGPGCN; listed as Homo sapiens),MIC,E. coli DH5α,25 µg/mL
same,MIC against C. diversus,Citrobacter diversus; [1],12.5 µg/mL
same,MIC against P. mirabilis,Proteus mirabilis; [2],50 µg/mL
same,MIC against P. aeruginosa,Pseudomonas aeruginosa; [3],25 µg/mL
same,MIC against E. coli BL21,E. coli BL21; [4],12.5 µg/mL
same,MIC against E. cloacae,Enterobacter cloacae; [5],50 µg/mL
same,MIC against M. catarrhalis,Moraxella catarrhalis; [6],25 µg/mL
same,MIC against S. marcescens,Serratia marcescens; [7],12.5 µg/mL
same,MIC against A. hydrophila,Aeromonas hydrophila; [8],25 µg/mL
same,MIC against P. vulgaris,Proteus vulgaris; [9],25 µg/mL
same,MIC against K. pneumonia,Klebsiella pneumonia; [10],12.5 µg/mL
PRT874 (CNCNQIGSVHDRCNETGFCECREGAAGPKCDDCLPTHYWRQGCYP; listed as Homo sapiens),MIC,E. coli DH5α,12.5 µg/mL
same,MIC (μg/mL) C. diversus,Citrobacter diversus; [11],12.5 µg/mL
same,MIC (μg/mL) P. mirabilis,Proteus mirabilis; [12],12.5 µg/mL
same,MIC (μg/mL) P. aeruginosa,Pseudomonas aeruginosa; [13],12.5 µg/mL
same,MIC (μg/mL) E. coli BL21,E. coli BL21; [4],25 µg/mL
same,MIC (μg/mL) E. cloacae,Enterobacter cloacae; [14],12.5 µg/mL
same,MIC (μg/mL) M. catarrhalis,Moraxella catarrhalis; [15],25 µg/mL
same,MIC (μg/mL) S. marcescens,Serratia marcescens; [16],12.5 µg/mL
same,MIC (μg/mL) A. hydrophila,Aeromonas hydrophila; [17],12.5 µg/mL
same,MIC (μg/mL) P. vulgaris,Proteus vulgaris; [18],12.5 µg/mL
same,MIC (μg/mL) K. pneumonia,Klebsiella pneumonia; [19],12.5 µg/mL
PRT938 (DIDDCLANPCQNGGSCMDGVNTFSCLCLPGFTGDKCQ; listed as Homo sapiens),MIC,E. coli DH5α,12.5 µg/mL
same,MIC,Citrobacter diversus; [11],12.5 µg/mL
same,MIC,Proteus mirabilis; [12],12.5 µg/mL
same,MIC,Pseudomonas aeruginosa; [13],25 µg/mL
same,MIC,E. coli BL21; [4],50 µg/mL
same,MIC,Enterobacter cloacae; [14],25 µg/mL
same,MIC,Moraxella catarrhalis; [15],50 µg/mL
same,MIC,Serratia marcescens; [16],12.5 µg/mL
same,MIC,Aeromonas hydrophila; [17],50 µg/mL
same,MIC,Proteus vulgaris; [18],50 µg/mL
same,MIC,Klebsiella pneumonia; [19],12.5 µg/mL
PRT46 (CQCNGHSTCINNNVCEQCKNLTTGKQCQDCMPGYYGDPTNGGQCTA; listed as Homo sapiens),MIC,E. coli DH5α,25 µg/mL
same,MIC (μg/mL) C. diversus,Citrobacter diversus; [20],12.5 µg/mL
same,MIC (μg/mL) P. mirabilis,Proteus mirabilis; [21],25 µg/mL
same,MIC (μg/mL) P. aeruginosa,Pseudomonas aeruginosa; [22],50 µg/mL
same,MIC (μg/mL) E. coli BL21,E. coli BL21; [23],12.5 µg/mL
same,MIC (μg/mL) E. cloacae,Enterobacter cloacae; [24],25 µg/mL
same,MIC (μg/mL) M. catarrhalis,Moraxella catarrhalis; [25],12.5 µg/mL
same,MIC (μg/mL) S. marcescens,Serratia marcescens; [26],100 µg/mL
same,MIC (μg/mL) A. hydrophila,Aeromonas hydrophila; [27],12.5 µg/mL
same,MIC (μg/mL) P. vulgaris,Proteus vulgaris; [28],12.5 µg/mL
same,MIC (μg/mL) K. pneumonia,Klebsiella pneumonia; [29],12.5 µg/mL
PRT89 (TNGQCHCKEFHYRPRGSDSCLPCDCYPVGSTSRSCA; listed as Homo sapiens),MIC,E. coli DH5α,25 µg/mL
same,MIC (μg/mL) C. diversus,Citrobacter diversus; [20],25 µg/mL
same,MIC (μg/mL) P. mirabilis,Proteus mirabilis; [21],25 µg/mL
same,MIC (μg/mL) P. aeruginosa,Pseudomonas aeruginosa; [22],12.5 µg/mL
same,MIC (μg/mL) E. coli BL21,E. coli BL21; [23],50 µg/mL
same,MIC (μg/mL) E. cloacae,Enterobacter cloacae; [24],25 µg/mL
same,MIC (μg/mL) M. catarrhalis,Moraxella catarrhalis; [25],12.5 µg/mL
same,MIC (μg/mL) S. marcescens,Serratia marcescens; [26],12.5 µg/mL
same,MIC (μg/mL) A. hydrophila,Aeromonas hydrophila; [27],50 µg/mL
same,MIC (μg/mL) P. vulgaris,Proteus vulgaris; [28],50 µg/mL
same,MIC (μg/mL) K. pneumonia,Klebsiella pneumonia; [29],12.5 µg/mL
PRT945 (QLDECASNPCQHGATCSDFIGGYRCECVPGYQGVNCE; listed as Homo sapiens),MIC,E. coli DH5α,25 µg/mL
same,MIC,Citrobacter diversus; [11],12.5 µg/mL
same,MIC,Proteus mirabilis; [12],50 µg/mL
same,MIC,Pseudomonas aeruginosa; [13],25 µg/mL
same,MIC,E. coli BL21; [4],50 µg/mL
same,MIC,Enterobacter cloacae; [14],25 µg/mL
same,MIC,Moraxella catarrhalis; [15],25 µg/mL
same,MIC,Serratia marcescens; [16],25 µg/mL
same,MIC,Aeromonas hydrophila; [17],50 µg/mL
same,MIC,Proteus vulgaris; [18],12.5 µg/mL
same,MIC,Klebsiella pneumonia; [19],12.5 µg/mL
PRT840 (GSARCGSGGPGSCPVPQECVPQDGAAGAGLCRCPQGWAGPHCR; listed as Homo sapiens),MIC,E. coli DH5α,25 µg/mL
same,MIC (μg/mL) C. diversus,Citrobacter diversus; [11],12.5 µg/mL
same,MIC (μg/mL) P. mirabilis,Proteus mirabilis; [12],12.5 µg/mL
same,MIC (μg/mL) P. aeruginosa,Pseudomonas aeruginosa; [13],25 µg/mL
same,MIC (μg/mL) E. coli BL21,E. coli BL21; [4],12.5 µg/mL
same,MIC (μg/mL) E. cloacae,Enterobacter cloacae; [14],12.5 µg/mL
same,MIC (μg/mL) M. catarrhalis,Moraxella catarrhalis; [15],25 µg/mL
same,MIC (μg/mL) S. marcescens,Serratia marcescens; [16],25 µg/mL
same,MIC (μg/mL) A. hydrophila,Aeromonas hydrophila; [17],25 µg/mL
same,MIC (μg/mL) P. vulgaris,Proteus vulgaris; [18],25 µg/mL
same,MIC (μg/mL) K. pneumonia,Klebsiella pneumonia; [19],25 µg/mL
PRT586 (CPCPEGPGSQRHFATSCHQDEYSQQIVCHCRAGYTGLRCEACAPGHFGDPSRPGGRCQL; listed as Homo sapiens),MIC,E. coli DH5α,12.5 µg/mL
same,MIC against C. diversus,"Citrobacter diversus; 96-well plate, 37° C., 10 h",12.5 µg/mL
same,MIC against P. mirabilis,"Proteus mirabilis; 96-well plate, 37° C., 10 h",50 µg/mL
same,MIC against P. aeruginosa,"Pseudomonas aeruginosa; 96-well plate, 37° C., 10 h",12.5 µg/mL
same,MIC against E. coli BL21,"E. coli BL21; 96-well plate, 37° C., 10 h",50 µg/mL
same,MIC against E. cloacae,"Enterobacter cloacae; 96-well plate, 37° C., 10 h",12.5 µg/mL
same,MIC against M. catarrhalis,"Moraxella catarrhalis; 96-well plate, 37° C., 10 h",25 µg/mL
same,MIC against S. marcescens,"Serratia marcescens; 96-well plate, 37° C., 10 h",12.5 µg/mL
same,MIC against A. hydrophila,"Aeromonas hydrophila; 96-well plate, 37° C., 10 h",50 µg/mL
same,MIC against P. vulgaris,"Proteus vulgaris; 96-well plate, 37° C., 10 h",25 µg/mL
same,MIC against K. pneumonia,"Klebsiella pneumonia; 96-well plate, 37° C., 10 h",50 µg/mL
PRT1282 (SLDSCSSGPCENGGTCHAQEGEDAPFTCSCPTGFEGPTCG; listed as Homo sapiens),MIC,E. coli DH5α,12.5 µg/mL
same,MIC against C. diversus,Citrobacter diversus; [20],50 µg/mL
same,MIC against P. mirabilis,Proteus mirabilis; [21],12.5 µg/mL
same,MIC against P. aeruginosa,Pseudomonas aeruginosa; [22],12.5 µg/mL
same,MIC against E. coli BL21,E. coli BL21; [23],50 µg/mL
same,MIC against E. cloacae,Enterobacter cloacae; [24],25 µg/mL
same,MIC against M. catarrhalis,Moraxella catarrhalis; [25],25 µg/mL
same,MIC against S. marcescens,Serratia marcescens; [26],50 µg/mL
same,MIC against A. hydrophila,Aeromonas hydrophila; [27],12.5 µg/mL
same,MIC against P. vulgaris,Proteus vulgaris; [28],25 µg/mL
same,MIC against K. pneumonia,Klebsiella pneumonia; [29],50 µg/mL
